The source of these data is patent US9624167B2, “N-(4-hydroxy-4-methyl-cyclohexyl)-4-phenyl-benzenesulfonamides and N-(4-hydroxy-4-methyl-cyclohexyl)-4-(2-pyridyl)benzenesulfonamides and their therapeutic use” (PIMCO 2664 LIMITED, priority 2013, dated 2017).

Read-outs that look alike come from different tables or passages of the source.

Data set [1] in a line: Rodent pharmacokinetics study. The format is in vivo, Sprague-Dawley rats. Conditions: rat; for half-life: male, Sprague-Dawley, plasma, elimination phase half-life; for i.v. AUC: intravenous 1 mg/kg; for p.o. AUC: oral 5 mg/kg in 0.5% CMC/0.1% Tween-80 (HMC-C-01-A in 2% dimethylacetamide/20% hydroxypropyl-β-cyclodextrin); for Bioavail, F: tentative oral bioavailability, F=AUC(p.o.)×Dose(i.v.)/AUC(i.v.)×Dose(p.o.). Here is the method:
Absorption and metabolic stability were studied using an in vivo pharmacokinetics assay.
Three male Sprague-Dawley rats, aged 8-12 weeks, were dosed with test compounds administered either orally or intravenously (dose level of 1 mg/kg body weight intravenous or 5 mg/kg body weight orally). Test compounds were formulated in 0.5% carboxymethylcellulose (CMC)/0.1% Tween-80 for administration via the oral route, or in 5% DMSO/10% solutol in saline for administration via the intravenous route. For compound HMC-C-01-A the oral administration was formulated in 2% dimethylacetamide/20% hydroxypropyl-β-cyclodextrin in water. Animals were given free access to food throughout the study except for fasting overnight and until 2 hours post dose on the day of dosing.
Blood samples were taken from the retro-orbital plexus at the following time points and placed in microtubes containing 20% K2EDTA solution:
Oral Dosing: predose; 0.25, 0.5, 1, 2, 4, 6, 8, and 24 hours post dose.
Intravenous Dosing: predose; 0.08, 0.25, 0.5, 1, 2, 4, 8, and 24 hours post dose.
Blood samples were centrifuged to obtain plasma, which was transferred to a separate container and frozen at −20° C.
For analysis, samples were thawed at room temperature and prepared by protein precipitation with acetonitrile spiked with internal standard (500 ng/mL glipizide) in the ratio 1:4 with plasma. The samples were then vortexed for 5 minutes and centrifuged for 10 minutes at 20,600×g at 4° C. 100 μL of the supernatant was collected for analysis. The standard samples were prepared similarly, after spiking blank rat plasma samples with 10 μL of analyte.
The pharmacokinetic parameters for the test compounds were calculated by Phoenix WinNonlin version 6.3 (Pharsight Corp, CA) using standard non-compartmental methods. Peak plasma concentrations (Cmax) and time of the peak plasma concentration (Tmax) were the observed values. The area under the plasma concentration-time curve (AUC) was determined by use of the linear trapezoidal rule up to the last measurable concentration (AUClast) and thereafter by extrapolation of the terminal elimination phase to infinity (AUCinf). The terminal elimination rate constant (kel) was determined by regression analysis of the linear terminal portion of the log plasma concentration-time curve. The elimination phase half-life (t1/2) was calculated as 0.693/kel.

The nature of data set [2]: Maximum Tolerated Dose, Sprague-Dawley rats. Conditions: rat, in vivo, oral, ascending dose. Here is the method: The acute safety of the compounds was assessed in rats in order to enable determination of the maximum tolerated dose (MTD), an indication of a compound's safety in animals. The higher the MTD, the greater is the potential safety of the compound being tested.
Two male and two female Sprague-Dawley rats, aged 8-12 weeks, were dosed at each dose level in an ascending dose study design. The test compounds were administered orally as a suspension formulated in 0.5% carboxymethylcellulose (CMC)/0.1% Tween-80 in a dose volume of 10 mL/kg. Animals were given free access to food throughout the study.
Animals were observed on at least two occasions during the first hour following dosing, approximately 30 minutes apart, and thereafter at hourly intervals for the remainder of the dosing day for at least 4 hours. […] The nature and severity, where appropriate, of the clinical signs and time were recorded at each observation. Observations included changes in the skin, fur, eyes, and mucous membranes, and also the respiratory, circulatory, autonomic, and central nervous system, as well as somatomotor activity and behaviour pattern. Particular attention was directed towards the observation of tremors, convulsions, salivation, diarrhoea, lethargy, sleep, and coma.
At the completion of the study, the results were expressed as the maximum tolerated dose for each compound, this being the highest of each without unacceptable toxicity.
The maximum dose without unacceptable side-effects was determined to be the MTD (expressed in mg/kg).

For a further data set, the target named is T1, hERG ion channel (Homo sapiens, UniProt Q12809).
T1 construct: expressed in transfected cells; host or cells: Chinese Hamster Ovary cells (hERG-CHO), stably transfected
Put plainly: hERG Ion Channel Assay (Q-patch, hERG-CHO cells). The data set is classed as cell-based. Conditions: hERG tail current, hERG-CHO cells, Q-patch; read-out: IC50 (1). Put shortly:
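Automated whole-cell Q-patch on hERG-CHO cells (held at 30° C for 24–48 h beforehand), −80 mV holding, +20 mV for 2 s then −40 mV for 1 s to elicit tail current every 5 s. Cumulative rising concentrations, 5 min each; percent tail-current inhibition fitted to three-parameter logistic for IC50.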
In general terms: The hERG channel carries a current that helps repolarise heart muscle cells.

In the next data set the test system is J774 macrophages. Put plainly: Resazurin Macrophage J774 Viability Assay. The data set is classed as cell-based. Conditions: Mus musculus, 12 point concentration range 10 μM to 0.5 nM, n = 4 replicates, mean of 3 independent experiments, 72 hour incubation, read-out: IC50 (2).
The mark [3] stands for this setting: female Sprague-Dawley rats, read-out: Maximum tolerated dose, Females.
Setting [4] is: male Sprague-Dawley rats, read-out: Maximum tolerated dose, Males.

T1 sequence (Q12809 whole entry): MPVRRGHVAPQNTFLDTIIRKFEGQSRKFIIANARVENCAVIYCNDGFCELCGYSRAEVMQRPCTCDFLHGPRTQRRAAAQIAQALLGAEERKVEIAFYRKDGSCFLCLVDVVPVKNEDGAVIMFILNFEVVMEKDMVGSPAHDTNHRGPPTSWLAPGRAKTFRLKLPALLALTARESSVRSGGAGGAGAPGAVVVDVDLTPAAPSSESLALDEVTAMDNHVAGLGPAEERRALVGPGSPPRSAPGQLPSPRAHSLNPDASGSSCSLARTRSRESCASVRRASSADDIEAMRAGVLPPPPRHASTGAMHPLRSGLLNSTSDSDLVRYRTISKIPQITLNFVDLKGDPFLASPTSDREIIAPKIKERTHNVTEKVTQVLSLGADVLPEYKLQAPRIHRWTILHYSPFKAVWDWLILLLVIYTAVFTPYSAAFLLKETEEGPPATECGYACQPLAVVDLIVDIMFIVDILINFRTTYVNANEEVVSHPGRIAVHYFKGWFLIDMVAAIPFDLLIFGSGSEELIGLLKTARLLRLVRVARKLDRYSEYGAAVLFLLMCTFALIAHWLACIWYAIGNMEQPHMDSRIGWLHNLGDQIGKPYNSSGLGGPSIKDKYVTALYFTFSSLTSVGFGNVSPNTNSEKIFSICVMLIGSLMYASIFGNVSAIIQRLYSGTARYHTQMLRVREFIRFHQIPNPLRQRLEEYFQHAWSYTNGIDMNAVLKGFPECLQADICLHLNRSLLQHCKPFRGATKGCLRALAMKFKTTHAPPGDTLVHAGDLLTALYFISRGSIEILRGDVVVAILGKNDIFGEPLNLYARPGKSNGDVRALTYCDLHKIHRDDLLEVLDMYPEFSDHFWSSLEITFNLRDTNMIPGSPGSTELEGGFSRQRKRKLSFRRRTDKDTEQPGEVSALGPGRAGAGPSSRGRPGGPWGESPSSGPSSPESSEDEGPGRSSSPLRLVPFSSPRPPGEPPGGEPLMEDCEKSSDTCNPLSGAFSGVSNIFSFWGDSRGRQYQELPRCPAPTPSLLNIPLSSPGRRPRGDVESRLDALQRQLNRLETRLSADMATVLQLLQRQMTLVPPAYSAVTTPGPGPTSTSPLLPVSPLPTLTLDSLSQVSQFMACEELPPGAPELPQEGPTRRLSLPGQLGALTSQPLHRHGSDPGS

The half-life is the time needed for the level to fall by half in the phase considered. Higher therefore signals slow decline. Usually IC50 stands for the midpoint of a concentration-inhibition curve. With `C[C@]1(O)CC[C@H](NS(=O)(=O)c2ccc(-c3ncc(F)cc3F)c(F)c2)CC1` [HMC-N-01-A, 4-(3,5-Difluoropyridin-2-yl)-3-fluoro-N-((1r,4r)-4-hydroxy-4-methylcyclohexyl)benzenesulfonamide], in data set [1], the half-life was 13.4 h; the “i.v. AUC” value is reported as 740 ng·min/mL; the p.o. AUC is 23.5 ng·h/mL; the “Bioavail, F” value was determined as 64%. Besides, the MTD in data set [2] (setting [3]) came to 80 mg/kg. Besides, the MTD in data set [2] (setting [4]) stood at 80 mg/kg. In addition, on hERG ion channel, the IC50 was found to be 183 µM. For the same molecule, in the data set with J774 macrophages, the half-maximal inhibitory concentration (IC50) is 2.66 µM.
`C[C@]1(O)CC[C@H](NS(=O)(=O)c2ccc(-c3ncc(Cl)cc3Cl)cc2)CC1` [HMC-N-03-A, 4-(3,5-Dichloropyridin-2-yl)-N-((1r,4r)-4-hydroxy-4-methylcyclohexyl)benzenesulfonamide]: in data set [1], the half-life is 3.1 h; the p.o. AUC was determined as 16 ng·h/mL; the “Bioavail, F” value was determined as 8%. Moreover, in data set [2] (setting [3]), the MTD was found to be 50 mg/kg. Besides, in data set [2] (setting [4]), the MTD is 50 mg/kg. Besides, at hERG ion channel, the IC50 is > 30 µM. Further, the IC50 in the data set on J774 macrophages stood at 0.62 µM.
With `C[C@]1(O)CC[C@H](NS(=O)(=O)c2ccc(-c3ccc(F)cc3C(F)(F)F)cc2)CC1` [HMC-C-02-A, 4′-Fluoro-N-((1r,4r)-4-hydroxy-4-methylcyclohexyl)-2′-(trifluoromethyl)biphenyl-4-sulfonamide], in data set [1], the half-life was 3.2 h; the “i.v. AUC” value is on record as 546 ng·min/mL; the p.o. AUC amounted to 17.8 ng·h/mL; the “Bioavail, F” value was 39%. The MTD in data set [2] (setting [3]) was > 200 mg/kg. Moreover, the MTD in data set [2] (setting [4]) was > 200 mg/kg. The IC50 at hERG ion channel amounted to 25 µM. Further, in the data set with J774 macrophages, the IC50 was 14.7 µM.
